Measured values: US8778954B2, “Phenylpyridine derivative and medicinal agent comprising same” (Kowa Company, Ltd., priority 2009, dated 2014)

Legend:
human PPARγ2 = target: T1, human PPARγ2 (Homo sapiens, UniProt P37231); assay: PPARγ activation activity, Gal4-PPARγ2 LBD luciferase transfection assay using COS7 cells; assay type: cell-based; conditions: Gal4-human PPARγ2 LBD chimera, 16 hours, rosiglitazone = 100%
T1 construct: the amino acids 182 to 505 of human PPARγ2; expressed in transfected cells; host or cells: COS7 cells (African green monkey kidney)
T1 sequence (P37231 182-505): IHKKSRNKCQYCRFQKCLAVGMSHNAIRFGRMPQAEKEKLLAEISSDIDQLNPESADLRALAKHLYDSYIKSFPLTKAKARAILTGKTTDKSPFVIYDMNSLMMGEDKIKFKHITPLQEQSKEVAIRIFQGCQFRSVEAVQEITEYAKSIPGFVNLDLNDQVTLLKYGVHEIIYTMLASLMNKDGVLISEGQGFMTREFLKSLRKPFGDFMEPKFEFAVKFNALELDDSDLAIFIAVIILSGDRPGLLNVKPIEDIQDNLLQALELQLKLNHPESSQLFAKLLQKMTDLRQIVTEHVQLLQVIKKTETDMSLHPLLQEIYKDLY
Protocol: The agonistic activity of the compounds of the invention on PPARγ was measured based on the transfection assay using COS7 cells (DS Pharma Biomedical Co., Ltd., Osaka, Japan), which are the cell line derived from the kidney of the African green monkey. COS7 cells were cultured under 5% CO2 concentration, and DMEM medium containing 10% fetal bovine serum, glutamic acid, and antibiotics was used as a medium.
As an expression vector, a chimera in which DNA binding domain of Gal4, which is a yeast transcription factor, and ligand binding domain of human PPARγ2 are fused, i.e., a fused product between the amino acids 1 to 147 of Gal4 transcription factor and the amino acids 182 to 505 of human PPARγ2, was used. Furthermore, as a reporter vector, a firefly luciferase containing five copies of Gal4 recognition sequence in the promoter region was used. Plasmid transfection to the cells was performed according to a method which uses jetPEI (trade name, manufactured by Funakoshi Co., Ltd., Tokyo, Japan). Furthermore, β-galactosidase expression vector was employed as an internal standard.
After the transfection of the cells, the medium was replaced with a DMEM medium (containing 1% serum) added with the test compound, and the cells were further cultured for 16 hours. After that, the luciferase activity and β-galactosidase activity in the cell lysis solution were measured.
For the present test, dimethyl sulfoxide (DMSO) was used for dissolution and dilution of the test compounds, and during the cell treatment, the DMSO concentration in DMEM medium (containing 1% serum) was adjusted to 0.1%. As a positive compound, rosiglitazone (trade name, manufactured by ALEXIS Corporation, Switzerland) was used. The luciferase activity (%) of the test compounds (1 to 30 μmol/L) was calculated when the luciferase activity of rosiglitazone (3 to 10 μmol/L) is 100% and the luciferase activity in the absence of the test compound is 0%. The 50% effective concentration of the test compound (EC50, 50% effect concentration) was calculated by using SAS Preclinical Package Ver 5.0 (trade name, manufactured by SAS institute Japan Co., Tokyo, Japan), which is a statistical analysis program.
EC50 values of these compounds are described in Table 2. […] Under the same condition, the PPARγ activation activity of telmisartan, i.e., EC50, was 1 to 5 μM.

db/db mice = assay: Impaired glucose tolerance improving activity in type 2 diabetes model mouse; assay type: in vivo; conditions: oral once a day, Example 23 10 mg/kg, Example 21 30 mg/kg, telmisartan 30 mg/kg
Protocol: By using 7-week old db/db mice, the body weight and the plasma glucose concentration of each mouse were measured before administration of the medicine, and group separation was performed by blocking assignment so that there was no variation of these values between respective groups. Solvent control (0.5% MC), 5 mg/kg rosiglitazone, 30 mg/kg telmisartan, 10 mg/kg of the compound of Example 23, and 30 mg/kg of the compound of Example 21 were orally administered iteratively for 4 weeks, once a day. Blood collecting was performed from the orbital vein plexus, and the plasma glucose concentration was measured at 2 weeks after the initiation of the administration. Furthermore, oral glucose tolerance test was performed at 4 weeks after the initiation of the administration. Specifically, the mouse was fasted for 24 hours from the night before the glucose tolerance test, and then a glucose solution was orally administered at a dose of 2 g/kg. The blood was collected from the tail vein of the mouse at 15, 30, 60, and 120 minutes after the administration of the glucose solution, and the concentration of the plasma glucose was measured. The area surrounded with the measured plasma glucose concentration and the time was taken as the area under the curve (AUC), and AUC for 120 minutes after administration of the glucose solution was estimated from the trapezoidal method.
Vehicle, Rosiglitazone, Telmisartan, Compound 23, and Compound 21 in FIGS. 2 and 3 represent solvent control, rosiglitazone, telmisartan, the compound of Example 23, and the compound of Example 21, respectively. The vertical axis of FIG. 2 represents the plasma glucose concentration. The data in FIG. 2 represents individual values and average values of each individual. The vertical axis of FIG. 3 represents the area under the curve surrounded with the plasma glucose concentration and the time (for 120 minutes after administration of the glucose solution). The data in FIG. 3 represents individual values and average values of each individual. […] Such activities were not confirmed for the telmisartan administration group.

[1] = system: Zucker diabetic fatty (ZDF) rats; assay: Activity for diabetic nephropathy in Zucker diabetic fatty rats; assay type: in vivo, rat; conditions: 3 mg/kg once a day for 15 weeks, FIG. 5
Protocol: By using 8-week old Zucker diabetic fatty (ZDF) rats, the body weight, the elimination amount of urinary total protein (UTP), the plasma triglyceride concentration (TG), and the plasma total cholesterol concentration (TC) of each rat were measured before administration of the medicine, and group separation was performed by blocking assignment so that there was no variation of these values between respective groups. Solvent control (0.5% MC), 3 mg/kg telmisartan, 3 mg/kg of the compound of Example 21, and 3 mg/kg of the compound of Example 23 were administered iteratively for 15 weeks once a day. UTP, TG, and TC were measured according to a general method during the administration period at 4, 8, 12, and 15 weeks after the administration.
Vehicle, Telmisartan, Compound 23, and Compound 21 in FIGS. 4, 5, and 6 represent solvent control, telmisartan, the compound of Example 23, and the compound of Example 21, respectively. The horizontal axis of FIG. 4-1 represents time (weeks after administration), and the vertical axis represents the elimination amount of urinary total protein per 18 hours. The data in FIG. 4-1 represents average values of each individual in each point, wherein -●- represents Vehicle (solvent control), -♦- represents Telmisartan, -▪- represents Compound 23 (the compound of Example 23), and -▴- represents Compound 21 (the compound of Example 21). The vertical axis of FIG. 4-2 represents the elimination amount of urinary total protein per 18 hours. The data in FIG. 4-2 represents individual values and average values of each individual +standard deviation.
The vertical axis of FIG. 5 represents the plasma triglyceride concentration. The data in FIG. 5 represents individual values and average values of each individual.
The vertical axis of FIG. 6 represents the plasma total cholesterol concentration. The data in FIG. 6 represents individual values and average values of each individual.
Furthermore, it was believed that one reason for the potent activity may be related to improving activity of lipid metabolism, and it is believed that the potent activity is attributed to activities other than the angiotensin receptor antagonistic activity.

How did the EC50 (human PPARγ2) turn out when `CCCc1nc2c(C)cc(-c3nc4ccccc4n3C)cc2n1Cc1ccc(-c2ccccc2C(=O)O)cc1` [telmisartan, reference compound] was run?
The EC50 was 1000 to 5000 nM.

What about the plasma glucose concentration (db/db mice; 2 weeks after initiation, FIG. 2) of the same compound?
Its plasma glucose concentration is “not confirmed”.

What about the “AUC of plasma glucose in the glucose tolerance test (120 minutes after glucose solution)” value (db/db mice; 4 weeks, glucose 2 g/kg, FIG. 3) of the same compound?
Its value is “not confirmed”.

And the plasma triglyceride concentration [1]?
Its plasma triglyceride concentration is “such activity was not found”.
